{"source": "patent US12503707B2", "about": "“Methods, plants and compositions for overcoming nutrient suppression of mycorrhizal symbiosis” (Cambridge Enterprise Limited, priority 2020, dated 2025)", "key": {"[1]": {"system": "H. vulgare root epidermal cells", "experiment": "LCO-induced nuclear calcium oscillations after strigolactone, karrikin and/or CEP pre-treatment", "assay_type": "cell-based, Hordeum vulgare", "details": "then 10^−7 M SmLCO", "description": "(§1) FIGS. 11A-11B provide the effects of strigolactone or karrikin treatment on M. truncatula (FIG. 11A) and H. vulgare (FIG. 11B) root epidermal cell nuclear calcium oscillations. FIG. 11A provides traces of nuclear calcium oscillations produced by M. truncatula root epidermal cells. Cells were grown under high phosphate and limiting nitrate levels (3.75 mM PO4^− and 0 mM NO3^−). The top trace represents control cells that were pretreated with buffer alone; the second trace represents cells that were pretreated with 1 μM of strigolactone 5-deoxystrigol for 12 hours; and the third trace represents cells that were pretreated with a 1 μM mixture of karrikin 1 and karrikin 2 (KARs) for 12 hours. All cells were secondarily treated with 10^−8 M NS-LCO. The scale bar indicates a span of 10 minutes, and the fractions indicate the number of cells that responded over the total number of cells analyzed.\nFIGS. 14A-14D provide the effects of treating H. vulgare plants with a strigolactone or with both a strigolactone and a CEP peptide. […] The scale bar indicates a span of 10 minutes, and the fractions indicate the number of cells that responded over the total number of cells analyzed. FIGS. 14B-14C provide the level of mycorrhizal colonization of H. vulgare when treated with the synthetic strigolactone analog GR24 under different nutrient conditions, as determined in two separate experiments. […]"}, "[2]": {"system": "H. vulgare LysM receptor-like kinase homologs", "experiment": "LysM receptor-like kinase gene expression by RT-qPCR after strigolactone or karrikin treatment", "assay_type": "in vivo, Hordeum vulgare", "details": "−N+P plates for 4 days, then 0.1 μM for 24 hours; relative to DMSO mock", "from_the_text": "FIG. 13 provides the relative expression levels of H. vulgare genes, including LysM receptor-like kinase homologs, in response to treatment with strigolactone or karrikin signaling molecules, as determined by qPCR. The H. vulgare gene is indicated on the x-axis including, from left to right, HvSTH7b (a homolog of Arabidopsis STH7, a karrikin-responsive gene (Nelson et al., 2010, PNAS)), HvRLK2, HvRLK3, HvRLK7, HvRLK9, and HvRLK10. Relative expression levels are shown on the y-axis. Values shown are the mean of three samples±SD. ** indicates P<0.01, and * indicates 0.01<P<0.05, as determined by a Student's t-test. […]\nWild type H. vulgare plants tested in FIG. 13 were grown on BNM plates for four days, and the plate roots were then treated with either 0.1 μM 5′-deoxystrigol (Chiralix), a mixture of 0.1 μM Karrikin 1 or 0.1 μM Karrikin 2 (Chiralix), or 0.1 μM GR24 (Chiralix) in liquid BNM for 24 hours. […] Real-time quantitative PCR (RT-qPCR) was performed using SensiFAST SYBR No-ROX Kit. An H. vulgare ADP gene was used as a reference gene, and fold changes were calculated for 5′-deoxystrigol-, karrikins- or GR24-treated roots with respect to DMSO-treated roots (mock treatment). […]"}, "[3]": {"system": "M. truncatula root epidermal cells", "experiment": "LCO-induced nuclear calcium oscillations after strigolactone or karrikin pre-treatment", "assay_type": "cell-based, Medicago truncatula", "details": "3.75 mM PO4− and 0 mM NO3−; 1 μM pre-treatment for 12 hours, then LCO", "description": "as §1\nIn FIGS. 11A-11B, M. truncatula (FIG. 11A) and H. vulgare (FIG. 11B) plants were grown on media containing high phosphate and limiting nitrate (3.75 mM PO4^− and 0 mM NO3^− for M. truncatula; 0 mM NO3^− and 0.5 mM PO4^− for H. vulgare). H. vulgare pants tested in FIG. 14A were grown on BNM media containing high nitrate and high phosphate (5 mM NO3^− and 0.5 mM PO4^−). […]"}}}
{"substance": "5-deoxystrigol [strigolactone]", "values": [{"measurement": "symbiotic calcium oscillations under replete phosphate after pre-treatment", "setting": "[1]; 0 mM NO3− and 0.5 mM PO4−, 1 μM pre-treatment for 12 hrs", "value": "overrode phosphate suppression of symbiotic calcium oscillations"}, {"measurement": "LCO induction of calcium oscillations under high nitrate after pre-treatment", "setting": "[1]; 5 mM NO3− and 0.5 mM PO4−, 1 μM SL", "value": "only limited LCO induction of calcium oscillations"}, {"measurement": "expression of LysM receptor-like kinase genes, including RLK10", "setting": "[2]", "value": "induced"}, {"measurement": "symbiotic calcium oscillations under replete phosphate after pre-treatment", "setting": "[3]", "value": "overrode phosphate suppression of symbiotic calcium oscillations"}]}
